According to ChEMBL document CHEMBL3988181, “GlaxoSmithKline Published Kinase Inhibitor Set 2 Onchocerca lienalis Screening Data”:

test: GSK PKIS2: Screen against O. lienalis microfilariae, single point, at 3.1uM to assess reduction in motility. Compounds were also tested for cytotoxicity against Rhesus Monkey LLCMK2 cells.; assay type: functional, Onchocerca lienalis, LLC-MK2; conditions: CELL_LINE LLCMK2; CELL_SUPPLIER ECACC; CONC 3.1 uM; ORGANISM_SUPPLIER Extracted from peri-umbilical skin obtained from naturally infected cattle in the UK; temperature 37 degree C

Q: With Cc1cc(-c2c(-c3ccc(F)cc3)ncn2CCCN2CCOCC2)nc(N)n1 as the molecule, how does the “MOTILITY REDUCTION/CYTOTOXICITY” value read?
A: The value was 0%.

Q: With CN(C)CCOc1ccc(-c2cc(-c3c[nH]nc3-c3ccccn3)ccn2)cc1 as the molecule, how does the “MOTILITY REDUCTION/CYTOTOXICITY” value read?
A: Its value is 0%.

Q: Which “MOTILITY REDUCTION/CYTOTOXICITY” value does the source give for Cc1cc(Nc2nc(-c3cccc(C)n3)nc3ccccc23)ccn1 here?
A: The value was 0%.

Q: With Cc1ccc2c(-c3ccnc(Nc4ccc(C(F)(F)F)cc4)n3)cnn2n1 as the molecule, how does the “MOTILITY REDUCTION/CYTOTOXICITY” value read?
A: Its value is 0%.

Q: For Cc1ccc2c(-c3ccncc3)c(-c3ccc(F)cc3)nn2c1, which “MOTILITY REDUCTION/CYTOTOXICITY” value is on record?
A: Its value is 0%.

Q: For CNc1ncnc2[nH]ncc12, which “MOTILITY REDUCTION/CYTOTOXICITY” value is on record?
A: Its value is 0%.

Q: With CNc1nc(-c2ccc3c(N)n[nH]c3c2)cc(N2C[C@@H](C(=O)NC3CCCCC3)OC[C@H]2C)n1 as the molecule, how does the “MOTILITY REDUCTION/CYTOTOXICITY” value read?
A: The value was 0%.

Q: Which “MOTILITY REDUCTION/CYTOTOXICITY” value does the source give for COc1ccc(Nc2nccc(N3CCC(NC(=O)c4cc5ccccc5s4)C3)n2)cc1 (stereo not given) here?
A: Its value is 0%.

Q: Which “MOTILITY REDUCTION/CYTOTOXICITY” value does the source give for CCn1c(-c2ccoc2)nc2cnccc21 here?
A: Its value is 0%.

Q: Which “MOTILITY REDUCTION/CYTOTOXICITY” value does the source give for CCNCC(Cc1ccccc1)NC(=O)c1cc(Br)c(-c2ccnc3[nH]ccc23)s1 (stereo not given) here?
A: Its value is 0%.

Q: With Cc1ccc(NC(=O)c2cccc(N3CCCCC3)c2)cc1-c1ccc(C(=O)NCC2CC2)cc1 as the molecule, how does the “MOTILITY REDUCTION/CYTOTOXICITY” value read?
A: The value was 20%.

Q: For C[C@@H](Oc1cc(-n2cnc3cc(-c4ccnc(NCCS(C)(=O)=O)c4)ccc32)sc1C(N)=O)c1ccccc1Cl, which “MOTILITY REDUCTION/CYTOTOXICITY” value is on record?
A: The value was 53.4%.

Q: With COc1cc2ncn(-c3cc(OCc4ccncc4)c(C(N)=O)s3)c2cc1OC as the molecule, how does the “MOTILITY REDUCTION/CYTOTOXICITY” value read?
A: The value was 0%.

Q: With COc1cccc(CC(=O)N2CCc3cc(-c4cn(C)c5ncnc(N)c45)ccc32)c1 as the molecule, how does the “MOTILITY REDUCTION/CYTOTOXICITY” value read?
A: Its value is 0%.

Q: With c1ccc(-c2cc3ccncc3cc2OC2CCNCC2)cc1 as the molecule, how does the “MOTILITY REDUCTION/CYTOTOXICITY” value read?
A: Its value is 93.4%.

Q: With COc1ccc(Nc2nccc(-c3ccc(NC(=O)c4cc5cc(F)ccc5[nH]4)cc3)n2)cc1 as the molecule, how does the “MOTILITY REDUCTION/CYTOTOXICITY” value read?
A: Its value is 60%.

Q: For Fc1ccc(-c2ncn(CCCN3CCOCC3)c2-c2ccccn2)cc1, which “MOTILITY REDUCTION/CYTOTOXICITY” value is on record?
A: Its value is 13.4%.

Q: For CCn1c(-c2nonc2N)nc2cncc(Br)c21, which “MOTILITY REDUCTION/CYTOTOXICITY” value is on record?
A: Its value is 33.4%.

Q: For Nc1ncc(-c2ccc3nccc(-c4ccncc4)c3c2)cc1S(=O)(=O)N1CCCCC1, which “MOTILITY REDUCTION/CYTOTOXICITY” value is on record?
A: Its value is 33.4%.

Q: With COC(=O)c1cccc(NC(=O)NCCNc2ccnc(Nc3ccc(F)cc3)n2)c1 as the molecule, how does the “MOTILITY REDUCTION/CYTOTOXICITY” value read?
A: Its value is 0%.

Q: For COc1cc(Nc2ncc3c(C)nc(-c4cc5ccccc5[nH]4)n3n2)cc(OC)c1OC, which “MOTILITY REDUCTION/CYTOTOXICITY” value is on record?
A: Its value is 53.4%.

Q: Which “MOTILITY REDUCTION/CYTOTOXICITY” value does the source give for O=C1NC(=O)C(c2ccc(Cl)cc2)=C1Nc1ccc(O)cc1 here?
A: The value was 0%.

Q: Which “MOTILITY REDUCTION/CYTOTOXICITY” value does the source give for O=C(Nc1c(F)cccc1F)c1cc(C(=O)c2ccccc2F)c[nH]1 here?
A: Its value is 0%.

Q: For NC[C@H](CC1CCCCC1)NC(=O)c1ccc(-c2ccnc3[nH]ccc23)s1, which “MOTILITY REDUCTION/CYTOTOXICITY” value is on record?
A: Its value is 66.7%.

Q: Which “MOTILITY REDUCTION/CYTOTOXICITY” value does the source give for Cc1cccc(-c2nc(Nc3ccncc3)c3ccccc3n2)n1 here?
A: The value was 0%.

Q: Which “MOTILITY REDUCTION/CYTOTOXICITY” value does the source give for Cc1cccc(Nc2nc(N[C@H]3CCCC[C@H]3N)ncc2C(N)=O)c1 here?
A: Its value is 40%.

Q: With CCn1c(-c2nonc2N)nc2c(-c3ccccc3)ncc(OCCCN)c21 as the molecule, how does the “MOTILITY REDUCTION/CYTOTOXICITY” value read?
A: Its value is 100%.

Q: With NCC(NC(=O)c1cc(-c2ccccc2)c(-c2ccnc3[nH]ccc23)s1)c1ccccc1 (stereo not given) as the molecule, how does the “MOTILITY REDUCTION/CYTOTOXICITY” value read?
A: The value was 0%.

Q: For CN1C(=O)C(Nc2ccc(Cl)c(C(=O)O)c2)=C(c2ccc(Cl)cc2)C1=O, which “MOTILITY REDUCTION/CYTOTOXICITY” value is on record?
A: Its value is 0%.

Q: For O=C1NC(=O)C(c2ccccc2)=C1Nc1cc(Cl)c(O)c(Cl)c1, which “MOTILITY REDUCTION/CYTOTOXICITY” value is on record?
A: Its value is 0%.

Q: For Cc1n[nH]c2cc(Nc3ccnc(Nc4cccc(CN5CCOCC5)c4)n3)ccc12, which “MOTILITY REDUCTION/CYTOTOXICITY” value is on record?
A: Its value is 0%.

Q: For NC(=O)c1cc(-c2ccccc2)cc2c(C3CCNCC3)c[nH]c12, which “MOTILITY REDUCTION/CYTOTOXICITY” value is on record?
A: The value was 0%.

Q: Which “MOTILITY REDUCTION/CYTOTOXICITY” value does the source give for Cc1ccc(Nc2ccnc(Nc3ccc4c(c3)CS(=O)(=O)C4)n2)cc1O here?
A: Its value is 80%.

Q: For O=C1NC(=O)C(c2ccccc2Cl)=C1Nc1ccccc1, which “MOTILITY REDUCTION/CYTOTOXICITY” value is on record?
A: The value was 0%.

Q: Which “MOTILITY REDUCTION/CYTOTOXICITY” value does the source give for c1ccc(-c2ccc3c(Nc4ccc5[nH]ncc5c4)ccnc3c2)nc1 here?
A: Its value is 60%.

Q: Which “MOTILITY REDUCTION/CYTOTOXICITY” value does the source give for c1ccc(Oc2ccc(Nc3ccnc4ccc(-c5ccccn5)cc34)cc2)cc1 here?
A: The value was 0%.

Q: With O=C(O)c1ccc(-c2nc(-c3ccc(F)cc3)c(-c3ccncc3)[nH]2)cc1 as the molecule, how does the “MOTILITY REDUCTION/CYTOTOXICITY” value read?
A: The value was 0%.

Q: Which “MOTILITY REDUCTION/CYTOTOXICITY” value does the source give for COc1ccc(NC(=O)Nc2ccc(C)c(-c3ccc(C(=O)Nc4ccncc4)cc3)c2)cc1 here?
A: The value was 80%.

Q: For CC(C)c1ccc(O)cc1Nc1ccnc2ccc(C(F)(F)F)cc12, which “MOTILITY REDUCTION/CYTOTOXICITY” value is on record?
A: The value was 33.4%.

Q: With COc1cc(Nc2nccc(N3CCC(NS(=O)(=O)c4ccc(NC(C)=O)cc4)CC3)n2)cc(OC)c1OC as the molecule, how does the “MOTILITY REDUCTION/CYTOTOXICITY” value read?
A: The value was 33.4%.

Q: For CS(=O)(=O)CCNCc1nc(-c2ccc3ncnc(Nc4ccc(OCc5cccc(F)c5)c(Cl)c4)c3c2)cs1, which “MOTILITY REDUCTION/CYTOTOXICITY” value is on record?
A: Its value is 0%.

Q: With O=C1NC(=O)C(c2ccc(Cl)cc2)=C1Nc1cccc(O)c1 as the molecule, how does the “MOTILITY REDUCTION/CYTOTOXICITY” value read?
A: The value was 13.4%.

Q: Which “MOTILITY REDUCTION/CYTOTOXICITY” value does the source give for CCn1c(-c2ccccc2)nc2cnccc21 here?
A: The value was 0%.

Q: Which “MOTILITY REDUCTION/CYTOTOXICITY” value does the source give for COc1ccc2nc(-c3cccc(C)n3)nc(Nc3ccncc3)c2c1 here?
A: The value was 0%.

Q: With COC(=O)C(Cc1ccccc1)NC(=O)NC1CCN(c2ccnc(Nc3ccc(F)cc3)n2)C1 (stereo not given) as the molecule, how does the “MOTILITY REDUCTION/CYTOTOXICITY” value read?
A: Its value is 13.4%.

Q: With COc1ccc(C2=C(Nc3cccc(Cl)c3)C(=O)NC2=O)cc1 as the molecule, how does the “MOTILITY REDUCTION/CYTOTOXICITY” value read?
A: The value was 0%.

Q: Which “MOTILITY REDUCTION/CYTOTOXICITY” value does the source give for O=C(Nc1ccc2c(c1)OCO2)NC1CCN(c2ccnc(NCc3ccc(F)cc3)n2)CC1 here?
A: The value was 33.4%.

Q: With CCCC(=O)Nc1n[nH]c2ncccc12 as the molecule, how does the “MOTILITY REDUCTION/CYTOTOXICITY” value read?
A: The value was 20%.

Q: With Cn1cncc1C(=O)NC1CCN(c2ccnc(Nc3ccc(F)cc3)n2)C1 (stereo not given) as the molecule, how does the “MOTILITY REDUCTION/CYTOTOXICITY” value read?
A: Its value is 0%.

Q: For O=C1NC(=O)C(c2ccccc2)=C1Nc1ccc(Cl)c(C(=O)O)c1, which “MOTILITY REDUCTION/CYTOTOXICITY” value is on record?
A: The value was 0%.

Q: With O=C(Nc1cccc(-c2nn3ncccc3c2-c2ccnc(Nc3ccccc3)n2)c1)c1c(F)cccc1F as the molecule, how does the “MOTILITY REDUCTION/CYTOTOXICITY” value read?
A: Its value is 0%.

Q: With Nc1nccc(-c2c(-c3ccc(F)cc3)ncn2C2CCN(CC(F)(F)F)CC2)n1 as the molecule, how does the “MOTILITY REDUCTION/CYTOTOXICITY” value read?
A: Its value is 0%.

Q: With Cc1ccc(C)c(NC(=O)NC2CCN(c3ccnc(Nc4ccc(F)cc4)n3)C2)c1 (stereo not given) as the molecule, how does the “MOTILITY REDUCTION/CYTOTOXICITY” value read?
A: Its value is 33.4%.

Q: Which “MOTILITY REDUCTION/CYTOTOXICITY” value does the source give for CN(c1ccc2c(c1)nc(NCc1ccc(F)cc1)n2C)c1ccnc(Nc2ccc(CS(C)(=O)=O)cc2)n1 here?
A: The value was 0%.

Q: For Cc1cc(N2CCC(NS(=O)(=O)c3ccc(F)cc3)CC2)nc(Nc2cccc(C#N)c2)n1, which “MOTILITY REDUCTION/CYTOTOXICITY” value is on record?
A: Its value is 0%.
